Like-named read-outs stand apart in the source and are kept apart here. Residues, ends and D or L forms follow the SMILES beside them. *: point of attachment. Cbz = O=C(OCc1ccccc1)*
Tests used:
Bcl-2 [1] = test: IP with anti ARTS Ab after ABT-263 treatment with or without QVD: binding of ARTS to Bcl-2; type: cell-based, human; conditions: in the presence of QVD
Protocol: Co immunoprecipitation was performed as previously described (Gottfried et al., 2004). Briefly, 10 μg of anti-ARTS antibody or 2 μg of anti-Bcl-2 or anti-XIAP antibody were added to the protein lysate and the samples were left rotating overnight at 4° C. On the following day, agarose beads conjugated to protein A/G (Santa Cruz) were added for 4 h. Samples were centrifuged at 4000 rpm, 4° C. for 5 min and washed three times with PBS. Proteins were eluted from beads following 5 min of boiling in sample buffer and separated on 12.5% SDS-PAGE gel, followed by Western blot analysis.
ABT is a known BH3 mimetics antagonist of Bcl-2 that binds the hydrophobic binding groove in Bcl-2 that includes the BH3 domain. […] Addition of QVD was done to examine whether the binding of ARTS to Bcl-2 occurs before initiation of caspase activation. An IP assay using monoclonal mouse anti ARTS Ab followed by Western Blot was performed by using Bcl-2, ARTS and Actin antibodies.

HeLa cells = test: Induction of apoptosis by ABT-263 (C-PARP, C-Casp3 Western blot); type: cell-based, human
Protocol: (§1) ABT-263 is a Bcl-2 antagonist targeting the BH3 domain and leading to initiation of apoptosis within two hours after treatment. The effect of ABT-263 was studied in HeLa cells and HeLa cells in which ARTS expression was knocked-down using shRNA method (HeLa KD ARTS). HeLa and HeLa KD ARTS cells were treated with different concentrations of ABT-263 at different incubation time points (0, 16 and 24 Hours). Lysates were separated using SDS-PAGE method. To evaluate apoptosis, Western Blot analysis was performed using antibodies recognizing Cleaved-PARP (C-PARP), Cleaved-casp3 (C-Casp3), Bcl-2, ARTS, XIAP and Actin (FIG. 8A).

HeLa KD ARTS cells = test: Induction of apoptosis by ABT-263 in ARTS knocked-down cells; type: cell-based, human; conditions: ARTS KD HeLa cells (absence of ARTS)
Protocol: as §1

Bcl-2 [2] = conditions: cited from earlier work
[3] = tested on: acute lymphocytic leukemia; conditions: panel of pediatric tumors; cited from earlier work
solid tumors = conditions: panel of pediatric tumors; cited from earlier work
Bcl-W = biological target: T1, Bcl-W (Homo sapiens, UniProt Q92843); conditions: cited from earlier work
T1 sequence (Q92843 1-193): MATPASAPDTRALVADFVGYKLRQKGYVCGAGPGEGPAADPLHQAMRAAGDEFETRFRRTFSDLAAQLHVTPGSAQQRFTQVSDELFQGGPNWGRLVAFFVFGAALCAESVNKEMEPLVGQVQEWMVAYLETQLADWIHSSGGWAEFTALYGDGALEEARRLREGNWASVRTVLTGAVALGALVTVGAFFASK

[4] = tested on: small cell lung cancer xenographs, acute lymphoblastic leukemia and hematologic tumors; conditions: cited from earlier work
Bcl-XL = Bcl-XL (Homo sapiens, UniProt Q07817); conditions: cited from earlier work
[5] = tested on: tumor types with an over expression of Mcl-1; conditions: cited from earlier work
Bcl-2 [6] = test: Over-expression of ARTS in COS-7 cells, Bcl-2 levels by Western blot and densitometry; type: cell-based; conditions: COS-7 cells transfected with Bcl-2 or Bcl-2 and ARTS, 16 h
Text: For transient transfections jetPEI™ (Polyplus Transfection) and Transfectol (GeneChoice) reagents were used according to the manufacturers' instructions.
To determine whether ARTS promotes apoptosis by regulating the levels of Bcl-2, the inventors first over-expressed ARTS in COS-7 cells. More specifically, COS-7 cell were transiently transfected with ARTS, Bcl-2 or empty vector or co-transfected with both constructs.

Bcl-2 [7] = test: Myc beads pull-down of ARTS and Bcl-2 in co-transfected COS-7 cells; type: binding; conditions: COS-7 cells co-transfected with Bcl-2 and ARTS
Protocol: COS-7 cells were co-transfected with different constructs as detailed herein. The cells were lysed in RIPA buffer (150 mM NaCl, 50 mM Tris-HCl (pH 8), 1% NP-40, 0.5% deoxycholate acid containing protease inhibitors (mini Complete, Roche)). The samples were left rotating overnight at 4° C. with the anti-Myc-beads (Santa Cruz). Samples were centrifuged at 4000 rpm, 4° C. for 5 min and washed four times in PBS. Proteins were eluted from beads following 5 min of boiling in sample buffer. Proteins were separate on 12.5% SDS-PAGE gel, followed by Western blot analysis.
The mechanism by which ARTS regulates Bcl-2 levels was further tested using a pull-down assay in COS-7 cells which were co-transfected with Bcl-2 and ARTS expression vectors. Pull-down assays were performed using agarose anti-myc beads followed by Western blot analysis using mouse anti-ARTS and anti-Bcl-2 antibodies.

Bcl-2 [8] = conditions: different cell lines and mouse embryonic fibroblasts (MEFs), Western blot
Bcl-2 [9] = test: Proteasome inhibition in transfected COS-7 cells, Bcl-2 levels; type: cell-based; conditions: COS-7 cells transfected with Bcl-2 or Bcl-2 and ARTS, 6 h
Protocol: For the proteasome inhibition studies the cells were incubated with MG132 (20 μM) for 6 hours.
COS-7 cells transiently transfected with Bcl-2 or co-transfected with Bcl-2 and ARTS constructs were incubated with a potent proteasome inhibitor MG132 for 6 h to evaluate the effect of the ubiquitin-proteasome system (UPS) on Bcl-2 degradation.

Bcl-2 [10] = test: Functional-structural pull-down assay with anti Bcl2 antibody in transfected HeLa cells; type: binding, human; conditions: pull-down with Bcl-2 antibodies
Protocol: HeLa cells were transiently transfected with Full length ARTS plasmid and 128 amino acids N′ terminus deletion of ARTS plasmid, for 24 hrs. The cells were extracted using RIPA-SDS lysis buffer. Immunoprecipitation was done by incubation of lysates overnight with anti Bcl2 antibody (BD), followed by precipitation done with protein A/G beads (Santa Cruz). Western blot analysis was performed using monoclonal anti ARTS antibody directed against its unique C terminus (Sigma).
In order to identify the Bcl-2 binding domain in ARTS, the inventors examined whether deletion of different fragments of ARTS, namely, the N-terminal 128 amino-acid residues may have an effect. Therefore, pull-down experiments were performed in HeLa cells transfected with either the full length ARTS or a deletion mutant thereof.

Bcl-XL, sequence (Q07817 whole entry): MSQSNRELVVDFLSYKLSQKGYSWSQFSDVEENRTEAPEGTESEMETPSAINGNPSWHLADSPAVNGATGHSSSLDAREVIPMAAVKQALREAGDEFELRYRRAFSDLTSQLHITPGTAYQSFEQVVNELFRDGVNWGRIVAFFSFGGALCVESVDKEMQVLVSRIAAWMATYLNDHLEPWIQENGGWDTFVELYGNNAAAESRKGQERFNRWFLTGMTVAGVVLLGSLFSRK

With `CC1(C)CCC(c2ccc(Cl)cc2)=C(CN2CCN(c3ccc(C(=O)NS(=O)(=O)c4ccc(N[C@H](CCN5CCOCC5)CSc5ccccc5)c(S(=O)(=O)C(F)(F)F)c4)cc3)CC2)C1` [ABT-263, 4-[4-[[2-(4-Chlorophenyl)-5,5-dimethyl-1-cyclohexen-1-yl]methyl]-1-piperazinyl]-N-[[4-[[(1R)-3-(4-morpholinyl)-1-[(phenylthio)methyl]propyl]amino]-3-[(trifluoromethyl)sulfonyl]phenyl]sulfonyl]benzamide] the “binding of ARTS to Bcl-2 after treatment” value (Bcl-2 [1]; 25 μM, 3 and 24 hours) was “significant increase in binding of ARTS to Bcl-2”, the “inhibition of the binding of ARTS to Bcl-2” value (Bcl-2 [1]) was “fails to inhibit” and the “apoptosis (level of C-PARP and C-Casp3) with increased concentrations” value (HeLa cells) was “increased apoptosis”. The apoptosis (HeLa cells; 25 μM for 24H) was “induction of apoptosis”, the “concentration giving optimal induction of apoptosis” value (HeLa cells; 24 h) was 25 µM and the “apoptosis (C-PARP and C-Casp3 levels)” value (HeLa KD ARTS cells) was “not able to induce apoptosis”. For the same molecule, the “apoptosis (C-PARP and C-Casp3 levels)” value (HeLa KD ARTS cells; listed as ABT) was “lower apoptosis rates”, the “binding to Bcl-2” value (Bcl-2 [2]) was “high affinity” and the “efficacy against acute lymphocytic leukemia” value [3] was “highly significant”. The “efficacy as a single agent against solid tumors” value (solid tumors) was “not effective”, the “binding to Bcl-W” value (Bcl-W) was “high affinity” and the efficacy against tumors [4] was “effective”. The “binding to Bcl-XL” value (Bcl-XL) was “high affinity”.

For `CN(C)CC[C@H](CSc1ccccc1)Nc1ccc(S(=O)(=O)NC(=O)c2ccc(N3CCN(Cc4ccccc4-c4ccc(Cl)cc4)CC3)cc2)cc1[N+](=O)[O-]` [ABT-737, (R)-4-(4-((4′-chloro-[1,1′-biphenyl]-2-yl)methyl)piperazin-1-yl)-N-((4-((4-(dimethylamino)-1-(phenylthio)butan-2-yl)amino)-3-nitrophenyl)sulfonyl)benzamide], the “effect in tumor types with an over expression of Mcl-1” value [5] is given as “no effect”, the “binding to Bcl-2” value (Bcl-2 [2]) is given as “high affinity” and the “binding to Bcl-W” value (Bcl-W) is given as “high affinity”. For the same molecule, the “binding to Bcl-XL” value (Bcl-XL) was “high affinity”.

With `COc1cc([C@@H]2c3cc4c(cc3[C@@H](O[C@@H]3O[C@@H]5CO[C@@H](C)O[C@H]5[C@H](O)[C@H]3O)[C@H]3COC(=O)[C@H]23)OCO4)cc(OC)c1O` [Etoposide] the “Bcl-2 level on treatment” value (Bcl-2 [6]) was “further reduction of Bcl-2 level”, the “fate of ARTS/Bcl-2 complex upon induction of apoptosis” value (Bcl-2 [7]) was “degraded” and the “Bcl-2 levels upon induction of apoptosis” value (Bcl-2 [8]) was “down regulated”.

In the case of `CC(C)C[C@@H](C=O)NC(=O)[C@H](CC(C)C)NC(=O)[C@H](CC(C)C)NC(=O)OCc1ccccc1` [MG132] (Cbz-Leu-Leu-Leu-aldehyde), the “Bcl-2 levels during proteasome inactivation” value (Bcl-2 [9]) is reported as “accumulation of Bcl-2 levels”.

B1: 128aa N′del ARTS: deletion mutant of ARTS lacking the N′ terminal 128 amino acid residues (protein)
chain: MVAGESGLGKSTLVNSLFLTDLYRDRKLLGAEERIMQTVEITKHAVDIEEKGVRLRLTIVDTPGFGDAVNNTECWKPVAEYIDQQFEQYFRDESGLNRKNIQDNRVHCCLYFISPFGHGYGPSLRLLAPPGAVKGTGQEHQGQGCH
In the case of B1, the “binding to Bcl-2” value (Bcl-2 [10]) is reported as “does not bind to Bcl-2”.

From patent US11230579B2, “Method of treating BCL-2 over-expressing disorders using arts containing a BH3-like domain” (CARMEL-HAIFA UNIVERSITY ECONOMIC CORPORATION LTD., priority 2012, dated 2022)
